Usually Ki stands for the equilibrium dissociation constant of an inhibitor or competing ligand from its target.

For the test, the target named is T1, recombinant human 5-HT5A receptor (Homo sapiens, UniProt P47898).
T1 construct: expressed in transfected cells; host or cells: HEK-EBNA (Human Embryonic Kidney-EBNA) cells, transient cDNA expression; membranes
T1 sequence (P47898 whole entry): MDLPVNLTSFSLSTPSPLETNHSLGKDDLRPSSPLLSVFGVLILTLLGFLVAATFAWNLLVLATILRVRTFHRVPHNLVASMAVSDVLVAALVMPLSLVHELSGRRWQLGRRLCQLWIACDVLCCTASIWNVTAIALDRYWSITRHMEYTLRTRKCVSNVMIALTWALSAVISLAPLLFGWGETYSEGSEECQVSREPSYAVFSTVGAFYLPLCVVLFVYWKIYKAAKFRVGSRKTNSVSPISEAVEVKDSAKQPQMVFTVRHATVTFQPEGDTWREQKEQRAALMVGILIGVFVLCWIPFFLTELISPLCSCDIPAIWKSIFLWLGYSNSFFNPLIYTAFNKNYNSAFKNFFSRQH
The test can be described thus: [3H]LSD radioligand binding assay, membranes from HEK-EBNA cells transiently expressing 5-HT5A receptors. The note with it: [3H]LSD approximately 1 nM; HEK-EBNA cell membranes; SPA beads; 120 min at room temperature; Ki from IC50 by Cheng-Prussoff equation. As for the experimental part: A [^3H]LSD radioligand binding assay was used to determine the affinity of the compounds for the recombinant human 5-HT5A receptor, in membranes from transiently (cDNA) expressed 5-HT5A receptors in Human Embryonic Kidney-EBNA (HEK-EBNA) cells. Assay buffer consisted of Tris (50 mM) buffer containing 1 mM EGTA, 10 mM MgCl2 (pH 7.4) and 10 μM pargyline. The binding assay was carried out in 96-well-plates in the presence of [^3H]LSD (approximately 1 nM), approximately 2 μg/well of membrane protein, and 0.5 mg of Ysi-poly-1-lysine SPA beads in a final volume of 200 μl of buffer. Non-specific binding was defined using methiothepin 2 μM. Compounds were tested at 10 concentrations. All assays were conducted in duplicate and repeated at least two times. Assay plates were incubated for 120 min at room temperature before centrifugation. Bound ligand was determined using a Packard Topcount scintillation counter. IC50 values were calculated using a non-linear curve fitting program and Ki values calculated using the Cheng-Prussoff equation.
With `Cc1noc(C)c1C1NC(N[C@H]2CCc3ccccc32)=Nc2ccccc21` (stereo partly drawn) [Example 26, [4-(3,5-Dimethyl-isoxazol-4-yl)-3,4-dihydro-quinazolin-2-yl]-(S)-indan-1-yl-amine], the Ki was 1.2 µM.

Consider `Fc1ccc2c(c1)CNC(NC1CCc3ccccc31)=N2` (centres unmarked) [Example 4, (6-Fluoro-3,4-dihydro-quinazolin-2-yl)-indan-1-yl-amine], for which the Ki came to 0.035 µM.

As to `c1ccc2c(c1)CC[C@H]2NC1=Nc2ccccc2C(c2ccsc2)N1` (stereo partly drawn) [Example 23, (R)-Indan-1-yl-(4-thiophen-3-yl-3,4-dihydro-quinazolin-2-yl)-amine], the Ki turned out to be 0.133 µM.

Consider `FC(F)(F)c1ccc2c(c1)N=C(NC1CCc3ccccc31)NC2` (centres unmarked) [Example 13, Indan-1-yl-(7-trifluoromethyl-3,4-dihydro-quinazolin-2-yl)-amine], for which the Ki was 0.26 µM.

With `Clc1ccc(Cl)c(C2NC(NC3CCc4ccccc43)=Nc3ccccc32)c1` (stereo in doubt) [Example 19, [4-(2,5-Dichloro-phenyl)-3,4-dihydro-quinazolin-2-yl]-(S)-indan-1-yl-amine], the Ki was found to be 0.55 µM.

Turning to `c1ccc2c(c1)CNC(N[C@H]1CCc3ccccc31)=N2` [Example 17, (3,4-Dihydro-quinazolin-2-yl)-(S)-indan-1-yl-amine], the Ki came out at 0.35 µM.

Turning to `c1ccc2c(c1)CNC(N[C@@H]1CCc3ccccc31)=N2` [Example 1, (3,4-Dihydro-quinazolin-2-yl)-(R)-indan-1-yl-amine], the Ki amounted to 0.025 µM.

On to `COc1ccc2c(c1)CNC(NC1CCc3ccccc31)=N2` (centres unmarked) [Example 11, Indan-1-yl-(6-methoxy-3,4-dihydro-quinazolin-2-yl)-amine], for which the Ki worked out at 0.125 µM.

Regarding `c1ccc2c(c1)CC[C@@H]2NC1=Nc2ccccc2C(c2ccsc2)N1` (stereo partly drawn) [Example 24, (S)-Indan-1-yl-(4-thiophen-3-yl-3,4-dihydro-quinazolin-2-yl)-amine], the Ki worked out at 0.293 µM.

`Cc1ccc2c(c1)CNC(NC1CCc3ccccc31)=N2` (centres unmarked) [Example 7, Indan-1-yl-(6-methyl-3,4-dihydro-quinazolin-2-yl)-amine]: the Ki was found to be 0.05 µM.

For the compound `Clc1ccc2c(c1)N=C(NC1CCc3ccccc31)NC2` (centres unmarked) [Example 12, (7-Chloro-3,4-dihydro-quinazolin-2-yl)-indan-1-yl-amine], the Ki came out at 0.174 µM.

In the case of `Clc1ccc2c(c1)C(c1ccccc1Cl)NC(NC1CCc3ccccc31)=N2` (stereo in doubt) [Example 21, [6-Chloro-4-(2-chloro-phenyl)-3,4-dihydro-quinazolin-2-yl]-(S)-indan-1-yl-amine], the Ki is 0.595 µM.

As for `Clc1ccc2c(c1)C(c1ccccc1)NC(NC1CCc3ccccc31)=N2` (centres unmarked) [Example 18, (6-Chloro-4-phenyl-3,4-dihydro-quinazolin-2-yl)-indan-1-yl-amine], the Ki came to 0.41 µM.

As for `CC1NC(NC2CCc3ccccc32)=Nc2cc(Cl)c(Cl)cc21` (centres unmarked) [Example 10, (6,7-Dichloro-4-methyl-3,4-dihydro-quinazolin-2-yl)-indan-1-yl-amine], the Ki came out at 0.071 µM.

Consider `Cc1noc(C)c1C1NC(N[C@@H]2CCc3ccccc32)=Nc2ccccc21` (stereo partly drawn) [Example 25, [4-(3,5-Dimethyl-isoxazol-4-yl)-3,4-dihydro-quinazolin-2-yl]-(R)-indan-1-yl-amine], for which the Ki was found to be 0.863 µM.

For the compound `Clc1ccc2c(c1)C(c1ccccc1Cl)NC(NC1CCc3ccccc31)=N2` (stereo in doubt) [Example 22, [6-Chloro-4-(2-chloro-phenyl)-3,4-dihydro-quinazolin-2-yl]-(R)-indan-1-yl-amine], the Ki worked out at 0.655 µM.

As to `Cc1cccc2c1N=C(NC1CCc3ccccc31)NC2` (centres unmarked) [Example 3, Indan-1-yl-(8-methyl-3,4-dihydro-quinazolin-2-yl)-amine], the Ki was found to be 0.032 µM.

For the compound `c1ccc(C2NC(NC3CCc4ccccc43)=Nc3ccccc32)cc1` (centres unmarked) [Example 14, Indan-1-yl-(4-phenyl-3,4-dihydro-quinazolin-2-yl)-amine], the inhibitory constant (Ki) stood at 0.31 µM.

On to `Cc1cccc2c1CNC(NC1CCc3ccccc31)=N2` (centres unmarked) [Example 8, Indan-1-yl-(5-methyl-3,4-dihydro-quinazolin-2-yl)-amine], for which the Ki came out at 0.055 µM.

On to `Fc1cccc2c1CNC(NC1CCc3ccccc31)=N2` (centres unmarked) [Example 6, (5-Fluoro-3,4-dihydro-quinazolin-2-yl)-indan-1-yl-amine], for which the Ki stood at 0.048 µM.

For `COc1ccc2c(c1)N=C(NC1CCc3ccccc31)NC2` (centres unmarked) [Example 15, Indan-1-yl-(7-methoxy-3,4-dihydro-quinazolin-2-yl)-amine], the Ki worked out at 0.31 µM.

As to `Clc1cccc2c1CNC(NC1CCc3ccccc31)=N2` (centres unmarked) [Example 2, (5-Chloro-3,4-dihydro-quinazolin-2-yl)-indan-1-yl-amine], the Ki turned out to be 0.032 µM.

With `Clc1ccc(Cl)c(C2NC(NC3CCc4ccccc43)=Nc3ccccc32)c1` (stereo in doubt) [Example 20, [4-(2,5-Dichloro-phenyl)-3,4-dihydro-quinazolin-2-yl]-(R)-indan-1-yl-amine], the Ki worked out at 0.55 µM.

With `COc1cc2c(cc1OC)N=C(NC1CCc3ccccc31)NC2` (centres unmarked) [Example 16, (6,7-Dimethoxy-3,4-dihydro-quinazolin-2-yl)-indan-1-yl-amine], the Ki was found to be 0.35 µM.

In the case of `Clc1ccc2c(c1Cl)CNC(NC1CCc3ccccc31)=N2` (centres unmarked) [Example 5, (5,6-Dichloro-3,4-dihydro-quinazolin-2-yl)-indan-1-yl-amine], the Ki was 0.039 µM.

Consider `CC1NC(NC2CCc3ccccc32)=Nc2ccccc21` (centres unmarked) [Example 9, Indan-1-yl-(4-methyl-3,4-dihydro-quinazolin-2-yl)-amine], for which the inhibition constant (Ki) is 0.08 µM.

The values are drawn from patent publication US7348332B2, “(3,4-dihydro-quinazolin-2-yl)-indan-1-yl-amines” (Hoffmann-La Rochse Inc., priority 2005, dated 2008).
